Measured values as given in article PMC10194981, “Chemosensory protein regulates the behavioural response of Frankliniella intonsa and Frankliniella occidentalis to tomato zonate spot virus–Infected pepper (Capsicum annuum)” (PLOS Pathogens, 2023).

How the values were obtained:
[1] = target: recombinant wild-type FintCSP1 (Frankliniella intonsa, UniProt A0A891LVF4); assay: Fluorescence (1-NPN) binding and competitive binding assay, wild-type FintCSP1; conditions: wild-type FintCSP1
Procedure: (§1) FintCSP1 and FoccCSP DNA were released from pEASY-T1/FintCSP1 and pEASY-T1/FoccCSP, respectively, by restriction digestion with BamHI and XhoI and cloned into the pET-30a vector (Invitrogen). The resulting construct was transformed into Transetta (DE3) Escherichia coli competent cells (Transgen). The production of recombinant FintCSP1 and FoccCSP was induced by addition of isopropyl-β-D-1-thiogalactopyranoside (IPTG, 0.2 mM) at 15°C and purified by Ni ion affinity chromatography (Sangon Biotech, Shanghai, China). The target protein was verified by 15% SDS-PAGE, and its concentration was determined with a BCA protein assay kit (Thermo Scientific, Rockford, IL, USA). The recombinant purified protein was stored at −20°C until use.
(§2) The binding affinity of FintCSP1 and FoccCSP to the fluorescent probe N-phenyl-1-naphthylamine (1-NPN) was tested using a Spectramax M2 fluorescence spectrometer (Molecular Devices, USA) as reported previously. […] The 1-NPN/FintCSP1 or 1-NPN/FoccCSP mixture was excited at 280 nm, and the emission spectra were recorded at 415 nm. The binding constants (Kd) of FintCSP1 or FoccCSP to 1-NPN were calculated by Scatchard analysis using Prism 5 software (GraphPad, La Jolla, CA, USA). Assuming a protein activity of 100% and that the volatile compound binds to the protein in a 1:1 ratio at saturation, the dissociation constants (Ki) of FintCSP1 or FoccCSP for each ligand were calculated according to the IC50 (the concentration when the ligand replaces 50% of the probe) value of the volatile compounds. The Ki values were calculated according to the following equation: Ki = [IC50]/(1 + [1-NPN]/K1-NPN), where [1-NPN] is the free concentration of 1-NPN, and K1-NPN is the Kd of the 1-NPN/FintCSP1 or 1-NPN/FoccCSP.

FintCSP1-Glu67Ala = FintCSP1-Glu67Ala (Frankliniella intonsa, UniProt A0A891LVF4, E67A); assay: Fluorescence (1-NPN) binding and competitive binding assay, FintCSP1 mutant
Procedure: as §2
(§3) To verify the key amino acids of FintCSP1 and FoccCSP that bind to cis-3-hexenal, six amino acid residues of FintCSP1 were mutated (Lys26Ala, Phe27Ala, Thr28Ala, Glu67Ala, Ser84Ala, and the negative control residue Val132Ala) and nine amino acid residues of FoccCSP were mutated (Lys26Ala, Phe27Ala, Thr28Ala, Thr29Ala, Tyr31Ala, Asp64Ala, Glu67Ala, Gln87Ala, and the negative control residue Val132Ala) with the Fast Mutagenesis System Kit (Transgen Biotech, Beijing, China) using the pET-30a/FintCSP1 and pET-30a/FoccCSP plasmid DNA as template, respectively. Specific primers were designed using Primer Premier 5.0 according to the instructions of the Fast Mutagenesis System Kit (S1 Table). After validation by sequencing, each recombinant variant protein was produced and purified as described above, and their binding affinity to cis-3-hexenal was measured as described above.

FintCSP1-Lys26Ala = FintCSP1-Lys26Ala (Frankliniella intonsa, UniProt A0A891LVF4, K26A); assay: as above
Procedure: as §2, §3

FintCSP1-Phe27Ala = FintCSP1-Phe27Ala (Frankliniella intonsa, UniProt A0A891LVF4, F27A); assay: as above
Procedure: as §2, §3

FintCSP1-Thr28Ala = FintCSP1-Thr28Ala (Frankliniella intonsa, UniProt A0A891LVF4, T28A); assay: as above
Procedure: as §2, §3

[2] = target: recombinant wild-type FoccCSP (Frankliniella occidentalis, UniProt G4Y3X1); assay: Fluorescence (1-NPN) binding and competitive binding assay, wild-type FoccCSP; conditions: wild-type FoccCSP, displacement of 1-NPN, both 2 μM
Procedure: as §1
The binding affinity of FintCSP1 and FoccCSP to the fluorescent probe N-phenyl-1-naphthylamine (1-NPN) was tested using a Spectramax M2 fluorescence spectrometer (Molecular Devices, USA) as reported previously. Volatile compounds and 1-NPN were first dissolved to a concentration of 1 mM in HPLC-grade methanol and dissolved to their indicated final concentration (2–20 μM) to titrate 2 μM protein solutions resuspended in 50 mM Tris-HCl (pH 7.4). The 1-NPN/FintCSP1 or 1-NPN/FoccCSP mixture was excited at 280 nm, and the emission spectra were recorded at 415 nm. The binding constants (Kd) of FintCSP1 or FoccCSP to 1-NPN were calculated by Scatchard analysis using Prism 5 software (GraphPad, La Jolla, CA, USA). Assuming a protein activity of 100% and that the volatile compound binds to the protein in a 1:1 ratio at saturation, the dissociation constants (Ki) of FintCSP1 or FoccCSP for each ligand were calculated according to the IC50 (the concentration when the ligand replaces 50% of the probe) value of the volatile compounds. The Ki values were calculated according to the following equation: Ki = [IC50]/(1 + [1-NPN]/K1-NPN), where [1-NPN] is the free concentration of 1-NPN, and K1-NPN is the Kd of the 1-NPN/FintCSP1 or 1-NPN/FoccCSP.

FintCSP1-Phe27Ala, sequence (A0A891LVF4 entry or part of it F27A): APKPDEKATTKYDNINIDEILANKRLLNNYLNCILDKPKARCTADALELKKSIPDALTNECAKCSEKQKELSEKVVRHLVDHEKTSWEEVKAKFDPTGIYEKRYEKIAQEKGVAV
recombinant wild-type FintCSP1, sequence (A0A891LVF4 entry or part of it): as the sequence (A0A891LVF4 entry or part of it F27A) above, with A8F counted along it
FintCSP1-Thr28Ala, sequence (A0A891LVF4 entry or part of it T28A): as the sequence (A0A891LVF4 entry or part of it F27A) above, with A8F, T9A counted along it
FintCSP1-Lys26Ala, sequence (A0A891LVF4 entry or part of it K26A): as the sequence (A0A891LVF4 entry or part of it F27A) above, with K7A, A8F counted along it
FintCSP1-Glu67Ala, sequence (A0A891LVF4 entry or part of it E67A): as the sequence (A0A891LVF4 entry or part of it F27A) above, with A8F, E48A counted along it
recombinant wild-type FoccCSP, sequence (G4Y3X1 entry or part of it): as the sequence (A0A891LVF4 entry or part of it F27A) above, with D5E, A8F, I15V, A44N, A62M, V80A, D81E, H82K, T85E, Q109K counted along it

SMILES: CC/C=C\CC=O [cis-3-hexenal]
- binding affinity to FintCSP1 (in words) ([1]; competitive fluorescence binding assay, classes of Ki): moderate binding affinity
- IC50 ([1]; displacement of 1-NPN, protein and 1-NPN both 2 μM, 50 mM Tris-HCl pH 7.4, read-out: IC50): 36.2 ± 1 µM
- Ki ([1]; displacement of 1-NPN, protein and 1-NPN both 2 μM, pH 7.4, calculated from IC50, read-out: Ki): 28.7 ± 0.79 µM
- IC50 (FintCSP1-Glu67Ala): > 100 µM
- affinity for cis-3-hexenal (in words) (FintCSP1-Glu67Ala; FintCSP1-Glu67Ala, competitive fluorescent assay): no affinity
- IC50 (FintCSP1-Lys26Ala): > 100 µM
- affinity for cis-3-hexenal (in words) (FintCSP1-Lys26Ala; FintCSP1-Lys26Ala, competitive fluorescent assay): no affinity
- IC50 (FintCSP1-Phe27Ala): 53.5 ± 3.07 µM
- Ki (FintCSP1-Phe27Ala): 41.1 ± 2.36 µM
- affinity for cis-3-hexenal (in words) (FintCSP1-Phe27Ala; FintCSP1-Phe27Ala compared with wild-type FintCSP1): weaker affinity
- IC50 (FintCSP1-Thr28Ala): > 100 µM
- affinity for cis-3-hexenal (in words) (FintCSP1-Thr28Ala; FintCSP1-Thr28Ala, competitive fluorescent assay): no affinity
- IC50 ([2]; 50 mM Tris-HCl pH 7.4): 28.8 ± 0.45 µM
- Ki ([2]; pH 7.4): 23.4 ± 0.36 µM
